Results from US20220064138A1, “MACROLIDE BREFELDIN A ESTER DERIVATIVES AND USE THEREOF” (OCEAN UNIVERSITY OF CHINA, priority 2019, published 2022).

Legend:
Test in all cases: Cell proliferation assay (CCK-8)
Type in all cases: cell-based
[1] = system: human breast cancer MCF7 cells; conditions: MCF7, 72 h
Excerpt: (§1) CCK-8 method: The CCK-8 method is a highly sensitive, non-radioactive colorimetric assay for the determination of the number of viable cells in cell proliferation or cytotoxicity assays. The orange formazan dye produced by the bioreduction of CCK-8 by intracellular dehydrogenase is soluble in the cell culture medium, and the amount of formazan dye produced is proportional to the number of living cells. The kit used in this method is the tetrazolium salt-WST-8 (2-(2-methoxy-4-nitrophenyl)-3-(4-nitrophenyl)-5-(2,4-disulfophenyl)-2H-tetrazolium monosodium salt) developed by Dojindo Chemical Research Institute (Dojindo), which is capable of being reduced to a water-soluble formazan dye in the presence of the electronic carrier 1-Methoxy PMS.
(§2) Human cervical cancer Hela cells, pancreatic cancer PANC-1 cells, esophageal cancer Eca-109 cells, human leukemia K562 cells, human lung cancer A549 cells, human liver cancer HepG2 cells, human gastric cancer MKN-45 cells, human breast cancer MCF7 cells were cultured in DMEM medium containing 10% FBS (fetal bovine serum), 100 U/mL penicillin and 100 μg/ml streptomycin. Hepatocellular carcinoma cells Bel-7402 were cultured in RPMI-1640 medium containing 10% FBS (fetal bovine serum), 100 U/ml penicillin and 100 μg/ml streptomycin. All cells were placed in a cell culture incubator at 37° C. with 5% CO2. Cells fluid was changed every 3-5 days, and after 80% cell fusion, trypsin digestion and passaging were performed to keep the cells in good logarithmic growth phase.
(§3) All the samples to be tested were dissolved in DMSO.
(§4) Cells in logarithmic growth phase were inoculated in 96-well plates with 5000 cells/well respectively, and after 24 h of incubation, samples were added (final concentrations as shown in the table), and biplicate wells were set up for each sample. The amount of solvent of DMSO was not higher than 2‰. After 72 h, 10 μL of CCK-8 solution was added to each well and incubated for 1.5˜3 h at 37° C. The OD value at 450 nm was measured on an plate reader.
(§5) Inhibition rate (%)=(1−[(OD450 dosed well−OD450 blank well)/(OD450 control well−OD450 blank well)])×100%
(§6) The fitted IC50 values were calculated using the log (inhibitor) vs. response-Variable slop analysis method in GraphPad Prism software.

[2] = system: esophageal cancer Eca-109 cells; conditions: Homo sapiens, Eca-109, 72 h
Excerpt: as §1, §2, §3, §4, §5, §6

[3] = system: pancreatic cancer PANC-1 cells; conditions: Homo sapiens, PANC-1, 72 h
Excerpt: as §1, §2, §3, §4, §5, §6

[4] = system: human lung cancer A549 cells; conditions: A549, 72 h
Excerpt: as §1, §2, §3, §4, §5, §6

[5] = system: human liver cancer HepG2 cells; conditions: HepG2, 72 h
Excerpt: as §1, §2, §3, §4, §5, §6

[6] = system: human leukemia K562 cells; conditions: K562, 72 h
Excerpt: as §1, §2, §3, §4, §5, §6

[7] = system: human gastric cancer MKN-45 cells; conditions: MKN-45, 72 h
Excerpt: as §1, §2, §3, §4, §5, §6

[8] = system: Human cervical cancer Hela cells; conditions: 72 h
Excerpt: as §1, §2, §3, §4, §5, §6

In the case of Cc1ccc(/C=C/C(=O)O[C@@H]2/C=C/C(=O)O[C@@H](C)CCC/C=C/[C@@H]3C[C@H](O)C[C@H]32)cc1 [Compound 7b, 4-O-(4-methylcinnamic acid)acyl BFA], the IC50 [1] is reported as 100 to 1000 nM, the IC50 [2] is reported as 100 to 1000 nM and the IC50 [3] is reported as 100 to 1000 nM. For the same molecule, the IC50 [4] was 100 to 1000 nM, the IC50 [5] was 100 to 1000 nM and the IC50 [6] was 1000 to 10000 nM. For the same molecule, the IC50 [7] was 100 to 1000 nM and the IC50 [8] was 1000 to 10000 nM.
C[C@H]1CCC/C=C/[C@@H]2C[C@H](OC(=O)/C=C/c3ccc(C(F)(F)F)cc3)C[C@H]2[C@H](OC(=O)/C=C/c2ccc(C(F)(F)F)cc2)/C=C/C(=O)O1 [Compound 13c, 4,7-O-bis(4-trifluoromethylcinnamic acid)acyl BFA] gave an IC50 [1] of 1000 to 10000 nM, an IC50 [2] of 1000 to 10000 nM and an IC50 [3] of 1000 to 10000 nM. It also gave an IC50 [4] of 100 to 1000 nM, an IC50 [5] of 1000 to 10000 nM and an IC50 [6] of 100 to 1000 nM. It also gave an IC50 [7] of 1000 to 10000 nM and an IC50 [8] of 1000 to 10000 nM.
For C[C@H]1CCC/C=C/[C@@H]2C[C@H](OC(=O)/C=C/c3cccc(Cl)c3)C[C@H]2[C@H](O)/C=C/C(=O)O1 [Compound 5a, 7-O-(3-chlorocinnamic acid)acyl BFA], the IC50 [1] was 100 to 1000 nM, the IC50 [2] was 1000 to 10000 nM and the IC50 [3] was 100 to 1000 nM. For the same molecule, the IC50 [4] was 100 to 1000 nM, the IC50 [5] was 100 to 1000 nM and the IC50 [6] was 100 to 1000 nM. It also gave an IC50 [7] of 100 to 1000 nM and an IC50 [8] of 100 to 1000 nM.
Molecule Cc1ccccc1/C=C/C(=O)O[C@@H]1C[C@H]2[C@H](O)/C=C/C(=O)O[C@@H](C)CCC/C=C/[C@@H]2C1 [Compound 8a, 7-O-(2-methylcinnamic acid)acyl BFA] has an IC50 [1] of 100 to 1000 nM, an IC50 [2] of 100 to 1000 nM and an IC50 [3] of 100 to 1000 nM. For the same molecule, the IC50 [4] was 100 to 1000 nM, the IC50 [5] was 1000 to 10000 nM and the IC50 [6] was 1000 to 10000 nM. For the same molecule, the IC50 [7] was 100 to 1000 nM and the IC50 [8] was 1000 to 10000 nM.
Molecule C[C@H]1CCC/C=C/[C@@H]2C[C@H](OC(=O)/C=C/c3ccc(F)cc3)C[C@H]2[C@H](O)/C=C/C(=O)O1 [Compound 3a, 7-O-(4-fluorocinnamic acid)acyl BFA] has an IC50 [1] of 100 to 1000 nM, an IC50 [2] of 1000 to 10000 nM and an IC50 [3] of 100 to 1000 nM. The IC50 [4] was 100 to 1000 nM, the IC50 [5] was 100 to 1000 nM and the IC50 [6] was 100 to 1000 nM. For the same molecule, the IC50 [7] was 100 to 1000 nM and the IC50 [8] was 1000 to 10000 nM.
Work on COc1cc(/C=C/C(=O)O[C@@H]2C[C@@H]3[C@H](/C=C/CCC[C@H](C)OC(=O)/C=C/[C@H]3OC(=O)/C=C/c3cc(OC)c(OC)c(OC)c3)C2)cc(OC)c1OC [Compound 11c, 4,7-O-bis(3,4,5-trimethoxycinnamic acid)acyl BFA] yielded an IC50 [1] of 1000 to 10000 nM, an IC50 [2] of 1000 to 10000 nM and an IC50 [3] of 1000 to 10000 nM. It also gave an IC50 [4] of 100 to 1000 nM, an IC50 [5] of 1000 to 10000 nM and an IC50 [6] of 100 to 1000 nM. The IC50 [7] was 1000 to 10000 nM and the IC50 [8] was 1000 to 10000 nM.
Work on C[C@H]1CCC/C=C/[C@@H]2C[C@H](OC(=O)/C=C/c3ccc4c(c3)OCO4)C[C@H]2C(OC(=O)/C=C/c2ccc3c(c2)OCO3)/C=C/C(=O)O1 (stereo partly drawn) [Compound 9c, 4,7-O-bis((E)-3-(benzo[d][1,3]dioxa-5-yl)acrylic acid)acyl BFA] yielded an IC50 [1] of 1000 to 10000 nM, an IC50 [2] of 1000 to 10000 nM and an IC50 [3] of 1000 to 10000 nM. It also gave an IC50 [4] of 1000 to 10000 nM, an IC50 [5] of 1000 to 10000 nM and an IC50 [6] of 100 to 1000 nM. The IC50 [7] was 100 to 1000 nM and the IC50 [8] was 1000 to 10000 nM.
Molecule COc1cc(/C=C/C(=O)O[C@@H]2C[C@H]3[C@H](O)/C=C/C(=O)O[C@@H](C)CCC/C=C/[C@@H]3C2)cc(OC)c1OC [Compound 11a, 7-O-(3,4,5-trimethoxycinnamic acid)acyl BFA] has an IC50 [1] of 100 to 1000 nM, an IC50 [2] of 1000 to 10000 nM and an IC50 [3] of 100 to 1000 nM. It also gave an IC50 [4] of 100 to 1000 nM, an IC50 [5] of 100 to 1000 nM and an IC50 [6] of 100 to 1000 nM. The IC50 [7] was 100 to 1000 nM and the IC50 [8] was 1000 to 10000 nM.
Cc1ccccc1/C=C/C(=O)O[C@@H]1/C=C/C(=O)O[C@@H](C)CCC/C=C/[C@@H]2C[C@H](O)C[C@H]21 [Compound 8b, 4-O-(2-methylcinnamic acid)acyl BFA] was tested, and the IC50 [1] was 100 to 1000 nM, the IC50 [2] was 100 to 1000 nM and the IC50 [3] was 100 to 1000 nM. The IC50 [4] was 100 to 1000 nM, the IC50 [5] was 100 to 1000 nM and the IC50 [6] was 1000 to 10000 nM. For the same molecule, the IC50 [7] was 100 to 1000 nM and the IC50 [8] was 1000 to 10000 nM.
